Measured values published in patent US20150119378A1, “AZETIDINYLOXY-, PYRROLIDINYLOXY-, AND PIPERIDINYLOXY-SUBSTITUTED METANICOTINES AS NEURONAL NICOTINIC ACETYLCHOLINE RECEPTOR LIGANDS” (priority 2013, published 2015).
Read-outs that look alike come from different tables or passages of the source.

Columns and labels:
Rat Ganglion = Rat Ganglion (Rattus norvegicus, UniProt P04757+P12392); test: Competition binding to receptors in membrane preparations, rat ganglion subtype ([3H]-epibatidine)
Protocol: (§1) Binding to nicotinic receptors was assayed on membranes using standard methods adapted from published procedures (Lippiello and Fernandes, 1986; Davies et al., 1999). In brief, membranes were reconstituted from frozen stocks (approximately 0.2 mg protein) and incubated for 2 h on ice in […] assay buffer (PBS) in the presence of competitor compound (0.001 nM to […]) and radioligand. [^3H]-nicotine (L-(−)-[N-methyl-3H]-nicotine, 69.5 Ci/mmol, Perkin-Elmer Life Sciences) was used for human α4β2 binding studies. [^3H]-epibatidine (52 Ci/mmol, Perkin-Elmer Life Sciences) was used for binding studies at the other receptor subtypes. Incubation was terminated by rapid filtration on a multimanifold tissue harvester (Brandel, Gaithersburg, Md.) using GF/B filters presoaked in 0.33% polyethyleneimine (w/v) to reduce non-specific binding. Filters were washed 3 times and the radioactivity retained was determined by liquid scintillation counting.
(§2) Binding data were expressed as percent total control binding. Replicates for each point were averaged and plotted against the log of drug concentration. The IC50 (concentration of the compound that produces 50% inhibition of binding) was determined by least squares non-linear regression using GraphPad Prism software (GraphPAD, San Diego, Calif.). Ki was calculated using the Cheng-Prusoff equation (Cheng and Prusoff, 1973).

Human Ganglion = target: T1, Human Ganglion (Homo sapiens, UniProt P30926+P32297); test: Competition binding to receptors in membrane preparations, human ganglion subtype ([3H]-epibatidine)
T1 construct: endogenous in cells
Protocol: (§3) SH-EP1/human α4β2 (Eaton et al., 2003), SH-EP1/human α4β4 (Gentry et al., 2003), SH-EP1/α6β3β4α5 (Grinevich et al., 2005), TE671/RD and SH-SY5Y cell lines (obtained from Dr. Ron Lukas, Barrow Neurological Institute) were maintained in proliferative growth phase in Dulbecco's modified Eagle's medium (Gibco/BRL) with 10% horse serum (Gibco BRL), 5% fetal bovine serum (HyClone, Logan Utah), 1 mM sodium pyruvate, 4 mM L-glutamine. For maintenance of stable transfectants, the α4β2 and α4β4 cell media was supplemented with 0.25 mg/mL zeocin and 0.13 mg/mL hygromycin B. Selection was maintained for the α6β3β4α5 cells with 0.25 mg/mL of zeocin, 0.13 mg/mL of hygromycin B, 0.4 mg/mL of geneticin, and 0.2 mg/mL of blasticidin. HEK/human α7/RIC3 cells (obtained from J. Lindstrom, U. Pennsylvania) were maintained in proliferative growth phase in Dulbecco's modified Eagle's medium (Gibco/BRL) with 10% fetal bovine serum (HyClone, Logan Utah), 1 mM sodium pyruvate, 4 mM L-glutamine, 0.4 mg/mL geneticin; 0.2 mg/ml hygromycin B.
(§4) Cells were harvested in ice-cold PBS, pH 7.4, then homogenized with a polytron (Brinkmann Instruments, Westbury, N.Y.). Homongenates were centrifuged at 40,000 g for 20 minutes (4° C.). The pellet was resuspended in PBS and protein concentration determined using the Pierce BCA Protein Assay kit (Pierce Biotechnology, Rockford, Ill.).
as §1, §2

Human α7 nAChR = target: T2, Human α7 nAChR (Homo sapiens, UniProt P36544); test: Competition binding to receptors in membrane preparations, human α7 ([3H]-epibatidine)
T2 construct: expressed in transfected cells; host or cells: HEK cells co-expressing RIC3 (from J. Lindstrom, U. Pennsylvania)
Protocol: as §3, §4, §1, §2

Human α4β2 = target: T3, Human α4β2 (Homo sapiens, UniProt P17787+P43681); test: Competition binding to receptors in membrane preparations, human α4β2 ([3H]-nicotine)
T3 construct: expressed in transfected cells; obtained from Dr. Ron Lukas, Barrow Neurological Institute
Protocol: as §3, §4, §1, §2

[1] = system: scopolamine induced deficit in mice; test: Morris Water Maze, scopolamine-induced memory (spatial) deficit; type: in vivo, male CD-1 mice
Protocol: Compounds of the present invention were tested in the Morris Water Navigation Task to characterize the cognitive-enhancing properties, namely through a chemically-induced memory (spatial) deficit task in the mouse.
The animals were male CD-1 mice (Charles River, Raleigh, N.C., USA), with 25-30 g body weight range on receipt. Animals were stabilized for at least 5 days after delivery in plastic cages on alpha-dry bedding with free access to food and water.
Test Compound, (2S,4E)-N-methyl-5-(5-((3R)-1-(4,4,4-trifluorobutanoyl)pyrrolidin-3-yloxy)-6-chloro-3-pyridinyl)-4-penten-2-amine, or a pharmaceutically acceptable salt thereof, such as the hemi-galactarate, was dissolved in deionized water (salt/base ratio=1.25).
The treatment schedule included scopolamine (0.75 mg/kg; s.c.) administered 15 minutes before the first training session each training day in combination with Test Compound (0.3, 1, 3 mg/kg of base) administered i.g. 25 minutes before the first training session each training day.
Scopolamine (0.75 mg/kg; s.c.) alone was administered 15 minutes before the training session each training day.
Cognitive activity was evaluated using an acquisition procedure in the Morris water maze whereby animals are administered a cognitively impairing compound (scopolamine) alone or in combination with a Test Compound during training sessions on days 1-4. Performance is evaluated on day 5 during a probe trial without any drug on board.
Preliminary analysis used one-way analysis of variance followed by post-hoc t-tests (Dunnetts) where applicable.

[2] = system: memory (recognition) task in the rat; test: Object recognition task (NOR); type: in vivo, male Sprague-Dawley rats
Protocol: The compounds of the present invention were assessed for cognitive enhancing properties in the object recognition task in rats. In more detail, the compounds of the present invention, specifically Test Compound, (2S,4E)-N-methyl-5-(5-((3R)-1-(4,4,4-trifluorobutanoyl)pyrrolidin-3-yloxy)-6-chloro-3-pyridinyl)-4-penten-2-amine, or a pharmaceutically acceptable salt thereof, such as the hemi-galactarate, were tested to characterize the cognitive-enhancing properties of in a memory (recognition) task in the rat following oral dosing. Reference is made, for example, to Ennaceur A., et al., (1988), A New One-Trial Test for Neurobiological Studies of Memory in Rats, Behavioral Brain Research, 31, pp. 47-59.
The animals used were male Sprague-Dawley rats (Charles River, Raleigh, N.C., USA), of 134-173 g body weight range on receipt. The animals were stabilized for at least 6 days after delivery in plastic cages on alpha-dry bedding with access to food and water (2 per cage).
The Test Compound was dissolved in deionized water. The treatment schedule was 0.001, 0.01 and 0.1 mg/kg of base (salt/base ratio=1.25; equivalent to […]) or vehicle was administered p.o. 6H before exploratory, acquisition, and recall object recognition trials. All treatments were separated by 24 h, however although the acclimation and acquisition trials were separated by 24 h, the recall trial occurred 30 h after the acquisition trial (i.e. 6 h after the third dose).
The method of evaluation included cognitive activity using the method of Luine et al. A statistical analysis was performed using parametric distribution (exploration time): Student's t-test; (% RI): Kruskall-Wallace One-way ANOVA on Ranks with Dunn's method for post-hoc analyses.

[3] = 0.3 mg/kg i.g. with scopolamine 0.75 mg/kg s.c., vs scopolamine alone, Dunnett's p<0.01

## CN[C@@H](C)C/C=C/c1cnc(Cl)c(O[C@H]2CCN(C(=O)CCC(F)(F)F)C2)c1
Rat Ganglion
  Ki: 31 µM
Human Ganglion
  Ki: 25 µM
Human α7 nAChR
  Ki: 13 µM
Human α4β2
  Ki: 0.0028 µM

## CN[C@@H](C)C/C=C/c1cnc(Cl)c(O[C@@H]2CCN(C(=O)C(C)(C)C)C2)c1
Rat Ganglion
  Ki: 1.1 µM
Human Ganglion
  Ki: 26 µM
Human α7 nAChR
  Ki: 34 µM
Human α4β2; read-out: Human α4β2 Ki
  Ki: 0.0087 µM

## CN[C@@H](C)C/C=C/c1cncc(O[C@H]2CCN(C(=O)C(C)C)C2)c1
Rat Ganglion
  Ki: 5.7 µM
Human Ganglion
  Ki: 20 µM
Human α7 nAChR
  Ki: 36 µM
Human α4β2; read-out: Human α4β2 Ki
  Ki: 0.0061 µM

## CN[C@@H](C)C/C=C/c1cnc(Cl)c(O[C@@H]2CCN(C(=O)CCC(F)(F)F)C2)c1 [Test Compound, (2S,4E)-N-methyl-5-(5-((3R)-1-(4,4,4-trifluorobutanoyl)pyrrolidin-3-yloxy)-6-chloro-3-pyridinyl)-4-penten-2-amine]
[1]; [3]
  mean distance from the platform (proximity) in the probe trial: significantly improved performance
  time spent in the target quadrant in the probe trial: significantly improved performance
[1]; 3.0 mg/kg i.g. with scopolamine 0.75 mg/kg s.c., vs scopolamine alone, Dunnett's p<0.05
  time spent in the target quadrant in the probe trial: significantly improved performance
[1]; doses of 0.3 and 3.0 mg/kg, animals cognitively impaired by scopolamine
  spatial memory performance (summary): significantly improved spatial memory performance
[2]; 0.001, 0.01, 0.1 mg/kg p.o., rats
  overt behavioral side effects: No overt behavioral side effects were observed
[2]; all dose groups 0.001-0.1 mg/kg p.o., statistical significance at the two higher doses
  recognition index (% RI) compared to vehicle-treated group: improved
[2]; any dose (0.001, 0.01 or 0.1 mg/kg p.o.), recall 6 h after third daily dose
  time investigating object B (novel) versus object A (familiar): spent significantly (P<0.05) more time investigating object B (novel) than object A (familiar)
[2]; p.o., rats, non-parametric statistical analyses
  MED for % RI: 0.01 mg/kg
[2]; young rats, dose range of 0.01 to 0.1 mg/kg, strong trend at 0.001 mg/kg
  episodic memory, % RI (summary): facilitates episodic memory

## CN[C@@H](C)C/C=C/c1cncc(O[C@H]2CCN(C(=O)c3ccc(F)cc3F)C2)c1
Rat Ganglion
  Ki: 80 µM
Human Ganglion
  Ki: 3.3 µM
Human α7 nAChR
  Ki: 47 µM
Human α4β2; read-out: Human α4β2 Ki
  Ki: 0.029 µM

## CN[C@@H](C)C/C=C/c1cnc(Cl)c(O[C@@H]2CCN(C(=O)c3ccc(F)cc3F)C2)c1
Rat Ganglion
  Ki: 22 µM
Human Ganglion
  Ki: 6.6 µM
Human α7 nAChR
  Ki: 22 µM
Human α4β2; read-out: Human α4β2 Ki
  Ki: 0.0038 µM

## CN[C@@H](C)C/C=C/c1cncc(O[C@@H]2CCN(C(=O)C(C)C)C2)c1
Rat Ganglion
  Ki: 50 µM
Human Ganglion
  Ki: 11 µM
Human α7 nAChR
  Ki: 35 µM
Human α4β2; read-out: Human α4β2 Ki
  Ki: 0.009 µM

## CN[C@@H](C)C/C=C/c1cncc(O[C@H]2CCN(C(=O)C(C)(C)C)C2)c1
Rat Ganglion
  Ki: 130 µM
Human Ganglion
  Ki: 19 µM
Human α7 nAChR
  Ki: 100 µM
Human α4β2; read-out: Human α4β2 Ki
  Ki: 0.0075 µM

## CN[C@@H](C)C/C=C/c1cnc(Cl)c(O[C@H]2CCN(C(=O)c3ccc(F)cc3)C2)c1
Rat Ganglion
  Ki: 5.9 µM
Human Ganglion
  Ki: 16 µM
Human α7 nAChR
  Ki: 98 µM
Human α4β2; read-out: Human α4β2 Ki
  Ki: 0.0015 µM

## CN[C@@H](C)C/C=C/c1cncc(O[C@H]2CCN(C(=O)C3CCC3)C2)c1
Rat Ganglion
  Ki: 17 µM
Human Ganglion
  Ki: 27 µM
Human α7 nAChR
  Ki: 66 µM
Human α4β2; read-out: Human α4β2 Ki
  Ki: 0.018 µM
